Several values for one entry are separate records, joined by “and”; a condition that tells them apart may be missing. Equal values may be shown once.
How the values were obtained:
Ri-1 DLBCL cells = test: Cell death assay (Annexin V/7AAD) in Ri-1 DLBCL cells; format: cell-based; conditions: 0 nM Compound B, 3 days
Method: (§1) Further, whole blood (WB) autologous B-cell depletion and cell-death induction assays were conducted as described in Mossner et al., Blood 115:4393-402, 2010. For cell death assay: Ri-1 DLBCL cells were seeded at 15,000 cells/well in 96-well plates. Cells were preincubated with Compound B or DMSO for 1 hour before the addition of antibody. Plates were incubated at 37° C. in a humidified CO2 chamber for 3 days. Cells were washed once with PBS and treated with Accutase for 15 minutes before being stained with Guava Nexin® reagent and analyzed on the Guava EasyCyte flow cytometer (Merck Millipore).
After 3 days of incubation, cell death was assessed by Annexin V/7AAD staining.

autologous B cells = test: Whole blood (WB) autologous B-cell depletion assay; format: cell-based
Method: as §1
The percentage of deplete autologous B cells in a whole blood assay may represent the antibody potency.

WIL2-S = test: ADCC LDH release assay, purified NK cells against WIL2-S target cells; format: cell-based, human; conditions: for Percentage of ADCC, obinutuzumab ADCC: obinutuzumab 10 μg/mL; for Percentage of ADCC, Palivizumab ADCC: Palivizumab (isotype control) 10 μg/mL
p-AKT Ser473 [1] = test: Flow cytometry, basal AKT phosphorylation in CD34+ progenitor cells from MF patients; format: cell-based, human; conditions: for effect on p-AKT in MF progenitor cells: basal and TPO-treated, dose dependent
Method: (§2) PBMCs were isolated from whole blood of myelofibrosis (MF) patients who had not received treatments (i.e. naïve patients) or received ruxolitinib (i.e. rux-treated patients). The cells were treated with 0.02, 0.2, or 2.0 μM of Compound B or vehicle (0.1% DMSO in 0.1% FBS/RPMI) for 2 hours at 37° C. The cells were then fixed, permeabilized, and stained for FACS analysis. Antibodies specific to p-AKT Ser473 and pS6RP Ser235/236 were used to detect AKT phosphorylation (p-AKT) and S6RP phosphorylation (p-S6RP) in CD34^+/CD3^−/CD14^−/CD19/CD66^− (BD Biosciences) gated cells using flow cytometry. The percentage of basal (i.e. untreated with TPO) AKT and S6RP phosphorylation were normalized to vehicle control. A two-tailed paired t-test (GraphPad Prism) was used to calculate p-values. Values of p<0.05 were considered significant.
(§3) Similar studies were conducted with PI3K inhibitors Compounds C and D. PBMC from MF patients had received ruxolitinib (rux) and MF patient had received Compound A. The cells were treated with Compounds C or D at 0, 20.0, 200.0, 2000.0 nM for 2 hours at 37° C. Cells were treated with TPO for 10 minutes. The percentage of basal p-AKT and p-S6RP levels were normalized to vehicle control and those of TPO-treated were normalized to TPO-treated vehicle control. The PI3Kδ inhibitors Compound C is referred by the chemical names of (S)-2-(1-((9H-purin-6-yl)amino)ethyl)-6-fluoro-3-phenylquinazolin-4(3H)-one.

pS6RP Ser235/236 [2] = test: Flow cytometry, basal S6RP phosphorylation in CD34+ progenitor cells from MF patients; format: cell-based, human; conditions: for effect on p-S6RP in MF progenitor cells: basal and TPO-treated, dose dependent
Method: as §2, §3

p-AKT Ser473 [3] = test: Flow cytometry, TPO-activated AKT phosphorylation in CD34+ progenitor cells from MF patients; format: cell-based, human
Method: as §2
(§4) Also, PBMC cells from naïve or ruxolitinib treated patients were isolated and treated with Compound B and with TPO as described above. The percentage of TPO-activated AKT and S6RP phosphorylation were normalized to those of TPO-treated vehicle (“no TPO” values in Table 4). […] Also, the inhibition to PI3K signaling was dose-dependent to Compound B.
as §3

pS6RP Ser235/236 [4] = test: Flow cytometry, TPO-activated S6RP phosphorylation in CD34+ progenitor cells from MF patients; format: cell-based, human
Method: as §2, §4, §3

CLL = conditions: patients with recurrent CLL; cited from earlier work
[5] = administered once a day; cited from earlier work
[6] = 20 nM, Compound A-treated Cells
[7] = 200 nM, Compound A-treated Cells
[8] = 2000 nM, Compound A-treated Cells

obinutuzumab: glycoengineered, type II, anti-CD20 antibody
Percentage of total Annexin V+ cells (Ri-1 DLBCL cells; Obinutuzumab 0.1 μg/mL): 30% and 36% and 35% and 37%
Percentage of total Annexin V+ cells (Ri-1 DLBCL cells; Obinutuzumab 1 μg/mL): 45% and 50% and 49% and 46%
Percentage of total Annexin V+ cells (Ri-1 DLBCL cells; Obinutuzumab 10 μg/mL): 54% and 49% and 56%
Percentage of B-cell depletion in WB (autologous B cells; obinutuzumab 0.06 ng/mL alone): −4% and −2% and 0%
Percentage of B-cell depletion in WB (autologous B cells; obinutuzumab 8 ng/mL alone): 34% and 38% and 55% and 45%
Percentage of B-cell depletion in WB (autologous B cells; obinutuzumab 40 ng/mL alone): 43% and 49% and 60% and 65%
Percentage of B-cell depletion in WB (autologous B cells; obinutuzumab 200 ng/mL alone): 50% and 69%
Percentage of B-cell depletion in WB (autologous B cells; obinutuzumab 1000 ng/mL alone, donors S1-S4): 52% and 63% and 71% and 56%
Percentage of B-cell depletion WB (autologous B cells; obinutuzumab 10 μg/mL, Compound B 0 nM): 57% and 71% and 65%
Percentage of ADCC, obinutuzumab ADCC (WIL2-S; E:T 10:1): 74% and 73% and 69% and 67% and 71%
Percentage of ADCC, obinutuzumab ADCC (WIL2-S; E:T 30:1): 81% and 72% and 80% and 84% and 69% and 89% and 88%

C[C@H](Nc1ncnc2[nH]cnc12)c1nc2ccc(F)cc2c(=O)n1-c1ccccc1 [Compound C, (S)-2-(1-((9H-purin-6-yl)amino)ethyl)-6-fluoro-3-phenylquinazolin-4(3H)-one]
percentage of pAKT, Basal (p-AKT Ser473 [1]; 20 nM 2 h, Rux-treated Cells, vehicle=100): 88%
percentage of pAKT, Basal (p-AKT Ser473 [1]; [6]): 89%
percentage of pAKT, Basal (p-AKT Ser473 [1]; [7]): 82%
percentage of pAKT, Basal (p-AKT Ser473 [1]; 200 nM, Rux-treated Cells): 90%
percentage of pAKT, Basal (p-AKT Ser473 [1]; [8]): 75%
percentage of pAKT, Basal (p-AKT Ser473 [1]; 2000 nM, Rux-treated Cells): 75%
effect on p-AKT in MF progenitor cells (p-AKT Ser473 [1]): inhibited
percentage of pS6, Basal (pS6RP Ser235/236 [2]; [6]): 82%
percentage of pS6, Basal (pS6RP Ser235/236 [2]; 20 nM, Rux-treated Cells): 65%
percentage of pS6, Basal (pS6RP Ser235/236 [2]; [7]): 75%
percentage of pS6, Basal (pS6RP Ser235/236 [2]; 200 nM, Rux-treated Cells): 59%
percentage of pS6, Basal (pS6RP Ser235/236 [2]; [8]): 53%
percentage of pS6, Basal (pS6RP Ser235/236 [2]; 2000 nM, Rux-treated Cells): 43%
effect on p-S6RP in MF progenitor cells (pS6RP Ser235/236 [2]): inhibited
percentage of pAKT, TPO (p-AKT Ser473 [3]; [6]): 65%
percentage of pAKT, TPO (p-AKT Ser473 [3]; 20 nM, Rux-treated Cells, TPO-treated vehicle=100): 65%
percentage of pAKT, TPO (p-AKT Ser473 [3]; [7]): 59%
percentage of pAKT, TPO (p-AKT Ser473 [3]; 200 nM, Rux-treated Cells): 53%
percentage of pAKT, TPO (p-AKT Ser473 [3]; [8]): 43%
percentage of pAKT, TPO (p-AKT Ser473 [3]; 2000 nM, Rux-treated Cells): 24%
percentage of pS6, TPO (pS6RP Ser235/236 [4]; [6]): 66%
percentage of pS6, TPO (pS6RP Ser235/236 [4]; 20 nM, Rux-treated Cells): 84%
percentage of pS6, TPO (pS6RP Ser235/236 [4]; [7]): 70%
percentage of pS6, TPO (pS6RP Ser235/236 [4]; 200 nM, Rux-treated Cells): 62%
percentage of pS6, TPO (pS6RP Ser235/236 [4]; [8]): 36%
percentage of pS6, TPO (pS6RP Ser235/236 [4]; 2000 nM, Rux-treated Cells): 42%

alemtuzumab: monoclonal antibody, alternative immunotherapeutic for CLL
median progression-free survival (PFS) (CLL): 4.7 months

Cc1cnc(Nc2ccc(OCCN3CCCC3)cc2)nc1Nc1cccc(S(=O)(=O)NC(C)(C)C)c1 [TG101348]
maximum tolerated dose (MTD) [5]: 680 mg/day

Palivizumab: used as an isotype control [reference compound]
Percentage of total Annexin V+ cells (Ri-1 DLBCL cells; Palivizumab 10 μg/mL): 13% and 19% and 14% and 21%
Percentage of ADCC, Palivizumab ADCC (WIL2-S; E:T 1:1): 3% and 4% and −1% and 2%
Percentage of ADCC, Palivizumab ADCC (WIL2-S; E:T 3:1): 8% and 11% and 10% and 6% and 4% and 5% and 7%
Percentage of ADCC, Palivizumab ADCC (WIL2-S; E:T 30:1): 31% and 37% and 36% and 34% and 39% and 25% and 29% and 24%

ofatumumab: monoclonal antibody, alternative immunotherapeutic for CLL
median progression-free survival (PFS) (CLL): 5.8 months

C[C@H](Nc1ncnc2[nH]cnc12)c1nc2ccccc2c(=O)n1-c1c(F)cccc1F [Compound D, (S)-2-(1-((9H-purin-6-yl)amino)ethyl)-3-(2,6-difluorophenyl)quinazolin-4(3H)-one]
effect on p-AKT in MF progenitor cells (p-AKT Ser473 [1]): inhibited
effect on p-S6RP in MF progenitor cells (pS6RP Ser235/236 [2]): inhibited
